Source: US20090099029A1, “Methods and substrates for conducting assays” (Invitrogen Corporation, priority 2005, published 2009)

Legend:
Assay in all cases: Further analysis of a plurality of inhibitors and a plurality of kinases (Table 5 inhibition results)
Type in all cases: biochemical
Design in all cases: scale not given here
kinases of Table 5 [1] = target: kinases of Table 5 (Homo sapiens, UniProt P37173); conditions: kinase TGFBR2 (Part I, plate C7, Domain 1)
Source text: (§1) The wash solution is then discarded.

kinases of Table 5 [2] = target: kinases of Table 5 (Homo sapiens, UniProt P06239); conditions: kinase LCK (Part I, plate A6, Domain 0)
Source text: as §1

kinases of Table 5 [3] = target: kinases of Table 5 (Homo sapiens, UniProt P07949); conditions: for Inhibition level: kinase RET; for Inhibition Results (Level): kinase RET (Part II, plate B7, Domain 1)
Source text: as §1

kinases of Table 5 [4] = target: T1, kinases of Table 5 (Homo sapiens, UniProt Q8IVH8); conditions: kinase MAP4K3 (Part I, plate C5, Domain 1); inhibitor 100 uM
T1 sequence (Q8IVH8 1-894): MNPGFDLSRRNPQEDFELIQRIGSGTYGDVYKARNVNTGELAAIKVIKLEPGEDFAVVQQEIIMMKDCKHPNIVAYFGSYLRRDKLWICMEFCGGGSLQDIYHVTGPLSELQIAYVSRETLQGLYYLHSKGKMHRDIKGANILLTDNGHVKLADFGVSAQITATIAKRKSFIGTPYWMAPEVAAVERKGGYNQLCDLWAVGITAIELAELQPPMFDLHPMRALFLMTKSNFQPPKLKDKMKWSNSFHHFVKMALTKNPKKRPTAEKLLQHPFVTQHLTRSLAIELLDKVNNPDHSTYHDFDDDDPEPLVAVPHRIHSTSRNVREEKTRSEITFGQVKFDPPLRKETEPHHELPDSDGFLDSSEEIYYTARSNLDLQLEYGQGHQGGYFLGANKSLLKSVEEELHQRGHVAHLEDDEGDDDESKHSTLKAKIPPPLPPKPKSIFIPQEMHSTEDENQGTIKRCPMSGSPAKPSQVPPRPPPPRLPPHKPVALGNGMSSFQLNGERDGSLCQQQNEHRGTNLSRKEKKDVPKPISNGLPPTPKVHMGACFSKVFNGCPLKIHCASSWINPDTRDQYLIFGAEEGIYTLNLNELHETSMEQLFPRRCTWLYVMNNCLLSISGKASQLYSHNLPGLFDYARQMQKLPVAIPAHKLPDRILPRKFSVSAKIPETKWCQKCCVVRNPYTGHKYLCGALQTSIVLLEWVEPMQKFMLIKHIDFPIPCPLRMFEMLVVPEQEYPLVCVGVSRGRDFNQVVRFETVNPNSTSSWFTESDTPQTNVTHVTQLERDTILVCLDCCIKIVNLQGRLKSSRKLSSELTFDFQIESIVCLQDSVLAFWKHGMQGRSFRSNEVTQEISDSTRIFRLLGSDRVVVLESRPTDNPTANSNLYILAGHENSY
Source text: as §1

kinases of Table 5 [5] = target: kinases of Table 5 (Homo sapiens, UniProt Q9Y6E0); conditions: inhibitor 100 uM; for Inhibition level: kinase STK24; for Inhibition Results (Level): kinase STK24 (Part II, plate F11, Domain 0)
Source text: as §1

kinases of Table 5 [6] = target: T2, kinases of Table 5 (Homo sapiens, UniProt Q9UQB9); conditions: kinase STK13 (Part I, plate G11, Domain 1); inhibitor 100 uM
T2 sequence (Q9UQB9 1-309): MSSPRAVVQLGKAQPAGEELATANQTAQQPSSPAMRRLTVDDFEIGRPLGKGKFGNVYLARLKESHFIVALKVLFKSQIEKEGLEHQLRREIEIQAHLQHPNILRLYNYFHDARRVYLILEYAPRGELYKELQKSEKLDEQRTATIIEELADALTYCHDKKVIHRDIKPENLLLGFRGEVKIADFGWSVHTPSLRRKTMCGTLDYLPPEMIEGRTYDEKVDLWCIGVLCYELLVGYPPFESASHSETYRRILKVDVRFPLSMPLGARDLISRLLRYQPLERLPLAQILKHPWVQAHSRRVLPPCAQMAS
Source text: as §1

kinases of Table 5 [7] = target: T3, kinases of Table 5 (Homo sapiens, UniProt Q92630); conditions: for Inhibition level: kinase DYRK2; for Inhibition Results (Level): kinase DYRK2 (Part II, plate D11, Domain 1)
T3 sequence (Q92630 1-601): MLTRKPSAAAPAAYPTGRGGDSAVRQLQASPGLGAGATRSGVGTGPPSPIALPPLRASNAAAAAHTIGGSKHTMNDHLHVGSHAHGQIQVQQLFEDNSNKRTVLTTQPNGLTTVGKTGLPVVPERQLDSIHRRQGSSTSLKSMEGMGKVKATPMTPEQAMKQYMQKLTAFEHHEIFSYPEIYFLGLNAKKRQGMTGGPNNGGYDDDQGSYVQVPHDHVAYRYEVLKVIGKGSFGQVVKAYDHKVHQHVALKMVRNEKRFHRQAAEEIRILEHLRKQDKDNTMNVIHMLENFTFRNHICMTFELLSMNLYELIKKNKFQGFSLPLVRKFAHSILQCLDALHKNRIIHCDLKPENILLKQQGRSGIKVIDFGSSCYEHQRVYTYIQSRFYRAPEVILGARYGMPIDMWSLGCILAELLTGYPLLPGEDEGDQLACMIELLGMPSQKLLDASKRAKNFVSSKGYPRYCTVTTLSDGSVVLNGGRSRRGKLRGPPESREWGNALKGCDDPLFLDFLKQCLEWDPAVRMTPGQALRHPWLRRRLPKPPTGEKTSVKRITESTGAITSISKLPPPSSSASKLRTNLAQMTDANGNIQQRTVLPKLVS
Source text: as §1

kinases of Table 5 [8] = target: T4, kinases of Table 5 (Homo sapiens, UniProt Q99759); conditions: kinase MAP3K3 (Part I, plate A1, Domain 0)
T4 sequence (Q99759 1-626): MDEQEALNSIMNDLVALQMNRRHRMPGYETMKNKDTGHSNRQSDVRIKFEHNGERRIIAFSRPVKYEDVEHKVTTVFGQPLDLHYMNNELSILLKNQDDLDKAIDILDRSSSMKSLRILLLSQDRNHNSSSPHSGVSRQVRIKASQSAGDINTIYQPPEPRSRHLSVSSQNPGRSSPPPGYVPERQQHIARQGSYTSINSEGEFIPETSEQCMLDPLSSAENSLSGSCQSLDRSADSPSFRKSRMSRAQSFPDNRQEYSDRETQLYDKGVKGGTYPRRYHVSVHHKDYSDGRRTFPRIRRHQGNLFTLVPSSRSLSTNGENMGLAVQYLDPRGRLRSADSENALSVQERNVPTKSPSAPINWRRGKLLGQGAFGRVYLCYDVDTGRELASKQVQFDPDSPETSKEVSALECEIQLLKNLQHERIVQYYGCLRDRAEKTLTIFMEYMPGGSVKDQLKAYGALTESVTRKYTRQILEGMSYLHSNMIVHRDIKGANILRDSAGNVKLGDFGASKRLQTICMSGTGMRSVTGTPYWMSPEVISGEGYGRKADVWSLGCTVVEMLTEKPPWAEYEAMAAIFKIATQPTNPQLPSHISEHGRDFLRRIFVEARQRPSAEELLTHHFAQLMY
Source text: as §1

kinases of Table 5 (Homo sapiens, UniProt P06239), sequence (P06239 whole entry): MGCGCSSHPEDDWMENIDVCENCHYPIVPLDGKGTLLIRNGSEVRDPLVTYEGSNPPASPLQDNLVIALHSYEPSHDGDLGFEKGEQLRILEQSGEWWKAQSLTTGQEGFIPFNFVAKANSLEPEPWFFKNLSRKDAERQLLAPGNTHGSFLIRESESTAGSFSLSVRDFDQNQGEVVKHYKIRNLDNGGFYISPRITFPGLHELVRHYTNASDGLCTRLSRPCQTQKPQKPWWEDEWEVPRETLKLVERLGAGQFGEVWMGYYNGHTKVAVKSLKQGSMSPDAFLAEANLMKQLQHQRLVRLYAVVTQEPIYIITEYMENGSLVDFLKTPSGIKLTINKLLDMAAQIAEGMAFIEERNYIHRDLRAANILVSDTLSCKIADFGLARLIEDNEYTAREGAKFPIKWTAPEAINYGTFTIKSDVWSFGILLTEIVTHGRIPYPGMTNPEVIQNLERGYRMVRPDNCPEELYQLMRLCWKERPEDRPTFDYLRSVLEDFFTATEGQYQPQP
kinases of Table 5 (Homo sapiens, UniProt P37173), sequence (P37173 23-567): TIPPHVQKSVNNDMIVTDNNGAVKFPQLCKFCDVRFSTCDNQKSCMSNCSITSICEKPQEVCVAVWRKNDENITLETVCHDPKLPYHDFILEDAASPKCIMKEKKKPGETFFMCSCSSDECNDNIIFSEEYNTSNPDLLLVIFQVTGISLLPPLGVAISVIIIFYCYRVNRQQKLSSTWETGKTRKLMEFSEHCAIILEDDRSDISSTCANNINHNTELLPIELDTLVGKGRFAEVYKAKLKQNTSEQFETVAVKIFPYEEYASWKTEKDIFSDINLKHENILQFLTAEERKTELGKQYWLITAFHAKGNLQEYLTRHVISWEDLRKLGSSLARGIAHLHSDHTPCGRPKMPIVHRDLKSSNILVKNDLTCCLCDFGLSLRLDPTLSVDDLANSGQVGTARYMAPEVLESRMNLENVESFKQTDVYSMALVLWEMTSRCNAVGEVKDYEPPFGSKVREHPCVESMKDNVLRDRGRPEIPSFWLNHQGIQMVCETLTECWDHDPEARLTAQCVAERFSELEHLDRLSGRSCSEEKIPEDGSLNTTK
kinases of Table 5 (Homo sapiens, UniProt Q9Y6E0), sequence (Q9Y6E0 whole entry): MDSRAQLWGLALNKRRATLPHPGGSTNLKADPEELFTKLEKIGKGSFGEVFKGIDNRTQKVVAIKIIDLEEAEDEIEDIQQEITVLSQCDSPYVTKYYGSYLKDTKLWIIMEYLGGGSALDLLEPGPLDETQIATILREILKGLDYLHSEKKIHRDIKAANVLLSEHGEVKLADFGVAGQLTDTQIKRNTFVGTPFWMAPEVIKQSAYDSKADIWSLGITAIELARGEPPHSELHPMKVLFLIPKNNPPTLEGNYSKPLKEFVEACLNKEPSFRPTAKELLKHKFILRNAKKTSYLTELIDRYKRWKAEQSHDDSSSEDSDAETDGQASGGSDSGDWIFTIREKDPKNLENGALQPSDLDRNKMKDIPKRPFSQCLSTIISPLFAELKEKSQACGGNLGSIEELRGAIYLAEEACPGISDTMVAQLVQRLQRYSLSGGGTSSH
kinases of Table 5 (Homo sapiens, UniProt P07949), sequence (P07949 29-1114): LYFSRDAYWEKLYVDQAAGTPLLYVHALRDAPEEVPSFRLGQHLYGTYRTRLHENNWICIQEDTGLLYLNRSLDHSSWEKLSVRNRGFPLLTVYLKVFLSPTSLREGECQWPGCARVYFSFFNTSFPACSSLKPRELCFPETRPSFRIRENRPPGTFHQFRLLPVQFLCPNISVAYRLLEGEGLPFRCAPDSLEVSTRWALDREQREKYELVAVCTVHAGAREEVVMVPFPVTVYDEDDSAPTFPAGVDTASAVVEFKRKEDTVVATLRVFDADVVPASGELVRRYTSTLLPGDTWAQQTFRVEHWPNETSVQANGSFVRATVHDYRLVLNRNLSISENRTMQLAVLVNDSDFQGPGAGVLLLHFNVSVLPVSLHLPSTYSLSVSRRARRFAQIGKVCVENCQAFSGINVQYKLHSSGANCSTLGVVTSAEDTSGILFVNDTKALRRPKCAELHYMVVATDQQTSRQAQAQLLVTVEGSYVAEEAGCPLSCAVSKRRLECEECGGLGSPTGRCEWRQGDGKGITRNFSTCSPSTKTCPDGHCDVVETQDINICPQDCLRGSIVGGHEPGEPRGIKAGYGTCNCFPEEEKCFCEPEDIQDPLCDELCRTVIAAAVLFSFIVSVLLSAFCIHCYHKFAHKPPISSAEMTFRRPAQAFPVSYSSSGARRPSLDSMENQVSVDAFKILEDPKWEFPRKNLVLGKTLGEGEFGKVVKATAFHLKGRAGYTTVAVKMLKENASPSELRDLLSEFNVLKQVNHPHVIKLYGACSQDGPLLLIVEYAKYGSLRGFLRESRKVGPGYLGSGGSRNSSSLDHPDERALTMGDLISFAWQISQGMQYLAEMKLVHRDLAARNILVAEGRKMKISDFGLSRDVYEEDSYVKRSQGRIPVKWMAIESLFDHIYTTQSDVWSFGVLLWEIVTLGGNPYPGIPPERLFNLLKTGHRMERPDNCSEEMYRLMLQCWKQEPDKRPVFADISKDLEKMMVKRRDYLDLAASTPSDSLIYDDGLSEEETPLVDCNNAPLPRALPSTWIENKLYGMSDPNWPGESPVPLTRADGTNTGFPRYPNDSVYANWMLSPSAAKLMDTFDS

Row | Structure (SMILES) | Inhibition Results (Level) (kinases of Table 5 [1]; inhibitor 100 uM) | Inhibition Results (Level) (kinases of Table 5 [2]; inhibitor 100 uM) | Inhibition level (kinases of Table 5 [3]; inhibitor 100 uM) | Inhibition Results (Level) (kinases of Table 5 [4]) | Inhibition level (kinases of Table 5 [5]) | Inhibition Results (Level) (kinases of Table 5 [6]) | Inhibition level (kinases of Table 5 [7]; inhibitor 100 uM) | Inhibition Results (Level) (kinases of Table 5 [8]; inhibitor 100 uM) | Inhibition Results (Level) (kinases of Table 5 [7]; inhibitor 100 uM) | further results
1 | N#C/C(=C/c1ccc(O)c(O)c1)C(=O)NCc1ccccc1 [AG 490] | 2 | 2 | 2 | 1 | 2 | 2 | 2 | 2 | – | –
2 | COc1cc2ncnc(Nc3cccc(Cl)c3)c2cc1OC [AG 1478] | 2 | 2 | 2 | 2 | 1 | 1 | 2 | 2 | – | –
3 | O=c1c(-c2ccc(O)cc2)coc2cc(O)cc(O)c12 [Genistein] | 2 | 2 | 2 | 2 | 2 | 2 | 2 | 2 | – | Inhibition Results (Level) (kinases of Table 5 [1]; inhibitor <3.7 mM): 1; Inhibition Results (Level) (kinases of Table 5 [2]; inhibitor <3.7 mM): 0; Inhibition level (kinases of Table 5 [3]; concentration not given): 0; Inhibition level (kinases of Table 5 [7]; concentration not given): 1; Inhibition Results (Level) (kinases of Table 5 [8]; inhibitor <3.7 mM): 2
4 | O=c1c(O)c(-c2ccc(O)c(O)c2)oc2cc(O)cc(O)c12 [Quercetin] | 0 | – | – | 1 | – | 2 | – | 0 | 2 | –
5 | CC(=O)c1c(O)c(C)c(O)c(Cc2c(O)c3c(c(C(=O)/C=C/c4ccccc4)c2O)OC(C)(C)C=C3)c1O [Rottlerin (Mallotoxin)] | 2 | 2 | – | 1 | – | 1 | – | 2 | 2 | Inhibition Results (Level) (kinases of Table 5 [3]; inhibitor 100 uM): 0; Inhibition Results (Level) (kinases of Table 5 [5]): 1
6 | CN[C@@H]1C[C@H]2O[C@@](C)([C@@H]1OC)n1c3ccccc3c3c4c(c5c6ccccc6n2c5c31)C(=O)NC4 [Staurosporine] | – | – | – | – | – | – | – | – | – | Inhibition Results (Level) (kinases of Table 5 [1]; inhibitor 21.5 uM): 2; Inhibition Results (Level) (kinases of Table 5 [8]; inhibitor 21.5 uM): 2

The next lines start with results.

Row | Inhibition Results (Level) (kinases of Table 5 [1]; inhibitor 100 uM) | Inhibition Results (Level) (kinases of Table 5 [2]; inhibitor 100 uM) | Inhibition level (kinases of Table 5 [3]; inhibitor 100 uM) | Inhibition Results (Level) (kinases of Table 5 [4]) | Inhibition level (kinases of Table 5 [5]) | Inhibition Results (Level) (kinases of Table 5 [6]) | Inhibition level (kinases of Table 5 [7]; inhibitor 100 uM) | Inhibition Results (Level) (kinases of Table 5 [8]; inhibitor 100 uM) | Structure (SMILES) | Inhibition Results (Level) (kinases of Table 5 [7]; inhibitor 100 uM) | further results
7 | 2 | 2 | – | 1 | – | 1 | – | 2 | O=S(=O)(NCCNC/C=C/c1ccc(Br)cc1)c1cccc2cnccc12 [H-89] | 2 | Inhibition Results (Level) (kinases of Table 5 [3]; inhibitor 100 uM): 0; Inhibition Results (Level) (kinases of Table 5 [5]): 2
8 | 2 | – | 2 | 2 | 2 | 2 | 2 | 2 | CC(C)(C)n1nc(-c2ccc(Cl)cc2)c2c(N)ncnc21 [PP2] | – | –
9 | 2 | 2 | 0 | 2 | 2 | 2 | 2 | 0 | Cn1cc(C2=C(c3cn(CCCSC(=N)N)c4ccccc34)C(=O)NC2=O)c2ccccc21 [Ro-31-8220] | – | Inhibition Results (Level) (kinases of Table 5 [1]; inhibitor 90 uM): 2; Inhibition Results (Level) (kinases of Table 5 [2]; inhibitor 90 uM): 0; Inhibition level (kinases of Table 5 [3]; concentration not given): 2; Inhibition level (kinases of Table 5 [7]; concentration not given): 0; Inhibition Results (Level) (kinases of Table 5 [8]; inhibitor 90 uM): 2
